According to the supplement of paper PMC12463676, “Small-molecule dissolution of stress granules by redox modulation benefits ALS models” (Nature Chemical Biology, 2025):

How the values were obtained:
[1] = compound: NC(=O)CCCCC1CCSS1 [lipoamide]; assay: thermal stability z-score vs DMSO; higher = more thermally stabilized by treatment; settings: HeLa, lipoamide concentration 100 µM
Method: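 Cellular thermal proteome profiling in HeLa cells. Cells were treated with 100 µM lipoamide for 1 h, with or without 1 mM arsenate for a further 1 h, then heated to ten temperatures (37-66.3 °C), and soluble protein was quantified by TMT mass spectrometry relative to 0.1% DMSO controls. The thermal stability score (sum of log2 fold changes minus the abundance score) was transformed to a z-score; mean of n = 3 experiments.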

[2] = compound: O=[As]([O-])(O)O.[K+] [potassium arsenate]; assay: as above; settings: HeLa; arsenate concentration 1 mM
Method: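 Cellular thermal proteome profiling in HeLa cells treated with 1 mM arsenate for 1 h (DMSO pretreatment), heated to ten temperatures (37-66.3 °C). Soluble protein was quantified by TMT mass spectrometry relative to DMSO controls; the thermal stability score was transformed to a z-score; mean of n = 3 experiments.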

[3] = arsenate co-treatment: 1 mM arsenate 1 h
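Also: each temperature applied for 3 min, abundance score taken as mean log2 fold change at the two lowest temperatures, z-score obtained by mean subtraction and division by SD.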

Sequence of UniProt P04083 (P04083 whole entry): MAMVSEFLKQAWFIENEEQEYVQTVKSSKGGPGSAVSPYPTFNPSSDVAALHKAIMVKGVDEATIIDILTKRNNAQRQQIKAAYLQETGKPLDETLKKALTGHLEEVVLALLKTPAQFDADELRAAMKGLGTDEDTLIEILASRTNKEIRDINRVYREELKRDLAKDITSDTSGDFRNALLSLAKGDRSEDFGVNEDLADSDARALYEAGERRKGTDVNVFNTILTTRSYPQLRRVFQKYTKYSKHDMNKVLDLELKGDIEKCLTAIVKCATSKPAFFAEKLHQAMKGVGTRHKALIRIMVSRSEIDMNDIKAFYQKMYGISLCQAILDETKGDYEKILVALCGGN
Sequence of UniProt Q6NXT1 (Q6NXT1 whole entry): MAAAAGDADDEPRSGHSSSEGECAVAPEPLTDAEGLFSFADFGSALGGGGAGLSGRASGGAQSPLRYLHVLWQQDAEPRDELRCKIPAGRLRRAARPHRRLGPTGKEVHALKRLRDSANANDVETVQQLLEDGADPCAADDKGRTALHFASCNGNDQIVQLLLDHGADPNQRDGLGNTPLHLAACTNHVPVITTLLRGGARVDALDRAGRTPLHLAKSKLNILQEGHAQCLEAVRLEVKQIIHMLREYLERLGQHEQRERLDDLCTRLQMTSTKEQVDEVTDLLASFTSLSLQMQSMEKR
Sequence of UniProt Q5VT79 (Q5VT79 whole entry): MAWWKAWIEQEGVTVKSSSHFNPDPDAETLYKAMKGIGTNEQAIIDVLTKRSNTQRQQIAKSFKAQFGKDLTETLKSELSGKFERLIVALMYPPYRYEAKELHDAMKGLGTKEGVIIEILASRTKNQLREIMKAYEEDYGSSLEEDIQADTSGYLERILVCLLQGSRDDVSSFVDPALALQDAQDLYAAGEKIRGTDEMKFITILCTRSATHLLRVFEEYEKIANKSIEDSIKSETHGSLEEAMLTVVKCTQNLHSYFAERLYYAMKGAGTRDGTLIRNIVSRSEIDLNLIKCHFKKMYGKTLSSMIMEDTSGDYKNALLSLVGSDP
Sequence of UniProt Q92625 (Q92625 whole entry): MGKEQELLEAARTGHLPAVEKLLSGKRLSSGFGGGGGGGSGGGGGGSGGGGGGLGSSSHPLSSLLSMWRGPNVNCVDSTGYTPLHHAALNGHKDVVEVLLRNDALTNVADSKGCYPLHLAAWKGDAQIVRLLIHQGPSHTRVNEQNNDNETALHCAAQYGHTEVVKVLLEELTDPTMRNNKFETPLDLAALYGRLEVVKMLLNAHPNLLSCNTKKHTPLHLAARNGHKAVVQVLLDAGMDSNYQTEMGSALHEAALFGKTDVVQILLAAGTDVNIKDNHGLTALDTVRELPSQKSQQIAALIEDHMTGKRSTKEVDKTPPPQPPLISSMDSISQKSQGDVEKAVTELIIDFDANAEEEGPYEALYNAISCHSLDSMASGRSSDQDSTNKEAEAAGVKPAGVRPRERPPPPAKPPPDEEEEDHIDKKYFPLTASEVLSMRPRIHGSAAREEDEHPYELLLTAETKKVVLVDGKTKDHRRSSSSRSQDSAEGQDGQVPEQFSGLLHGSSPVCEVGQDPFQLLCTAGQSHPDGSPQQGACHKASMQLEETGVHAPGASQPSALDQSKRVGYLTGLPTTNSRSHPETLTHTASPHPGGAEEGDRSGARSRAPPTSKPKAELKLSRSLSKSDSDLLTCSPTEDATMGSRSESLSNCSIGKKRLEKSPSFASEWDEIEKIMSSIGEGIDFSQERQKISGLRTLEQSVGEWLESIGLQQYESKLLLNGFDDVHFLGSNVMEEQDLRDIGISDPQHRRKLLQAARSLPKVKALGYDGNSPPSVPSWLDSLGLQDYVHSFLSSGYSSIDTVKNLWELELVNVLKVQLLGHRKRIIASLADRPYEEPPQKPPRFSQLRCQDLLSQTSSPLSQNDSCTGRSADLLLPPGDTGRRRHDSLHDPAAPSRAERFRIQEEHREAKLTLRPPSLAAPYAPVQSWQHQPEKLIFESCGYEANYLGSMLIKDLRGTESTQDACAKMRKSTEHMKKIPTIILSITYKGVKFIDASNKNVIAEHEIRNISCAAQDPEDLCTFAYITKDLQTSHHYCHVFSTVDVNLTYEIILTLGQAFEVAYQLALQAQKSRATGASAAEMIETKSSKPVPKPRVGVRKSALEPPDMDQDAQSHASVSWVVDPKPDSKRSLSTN
Sequence of UniProt O15084 (O15084 whole entry): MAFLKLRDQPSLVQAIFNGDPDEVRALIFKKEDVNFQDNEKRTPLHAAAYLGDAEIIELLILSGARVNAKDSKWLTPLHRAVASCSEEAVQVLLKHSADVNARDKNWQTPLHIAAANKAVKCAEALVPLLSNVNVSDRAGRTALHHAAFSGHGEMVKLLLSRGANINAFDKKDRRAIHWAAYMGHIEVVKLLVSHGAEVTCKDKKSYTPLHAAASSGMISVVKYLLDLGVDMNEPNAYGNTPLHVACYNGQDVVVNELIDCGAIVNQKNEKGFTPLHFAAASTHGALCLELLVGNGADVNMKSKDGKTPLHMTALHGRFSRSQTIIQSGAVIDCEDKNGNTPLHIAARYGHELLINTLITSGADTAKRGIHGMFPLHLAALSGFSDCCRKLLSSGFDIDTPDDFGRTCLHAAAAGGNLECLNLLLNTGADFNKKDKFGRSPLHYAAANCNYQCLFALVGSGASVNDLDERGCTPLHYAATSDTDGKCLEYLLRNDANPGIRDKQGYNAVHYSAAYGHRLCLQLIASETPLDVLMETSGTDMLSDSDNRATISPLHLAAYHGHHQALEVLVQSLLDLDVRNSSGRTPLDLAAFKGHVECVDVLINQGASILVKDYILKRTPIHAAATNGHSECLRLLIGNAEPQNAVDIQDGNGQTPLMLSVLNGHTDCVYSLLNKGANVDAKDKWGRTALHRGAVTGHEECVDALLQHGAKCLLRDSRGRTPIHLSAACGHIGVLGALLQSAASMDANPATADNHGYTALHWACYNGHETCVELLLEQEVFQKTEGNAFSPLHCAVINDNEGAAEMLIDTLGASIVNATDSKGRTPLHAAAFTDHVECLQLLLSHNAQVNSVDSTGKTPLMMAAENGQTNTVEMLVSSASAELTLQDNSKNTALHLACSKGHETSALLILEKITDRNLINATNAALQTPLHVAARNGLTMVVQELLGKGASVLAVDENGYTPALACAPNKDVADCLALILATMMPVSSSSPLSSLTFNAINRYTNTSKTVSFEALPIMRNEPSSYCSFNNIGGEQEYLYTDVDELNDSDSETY
Sequence of UniProt Q6AI12 (Q6AI12 whole entry): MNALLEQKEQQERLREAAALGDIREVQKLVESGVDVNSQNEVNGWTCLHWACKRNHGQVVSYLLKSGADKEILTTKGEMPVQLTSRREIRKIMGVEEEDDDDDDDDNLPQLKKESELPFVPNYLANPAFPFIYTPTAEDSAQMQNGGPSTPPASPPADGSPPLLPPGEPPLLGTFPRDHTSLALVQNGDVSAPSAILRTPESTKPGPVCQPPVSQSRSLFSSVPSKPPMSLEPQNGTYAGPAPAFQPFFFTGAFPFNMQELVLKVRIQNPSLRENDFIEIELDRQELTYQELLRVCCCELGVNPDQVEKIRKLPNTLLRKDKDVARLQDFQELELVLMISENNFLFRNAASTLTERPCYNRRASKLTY
Sequence of UniProt Q9Y4X0 (Q9Y4X0 whole entry): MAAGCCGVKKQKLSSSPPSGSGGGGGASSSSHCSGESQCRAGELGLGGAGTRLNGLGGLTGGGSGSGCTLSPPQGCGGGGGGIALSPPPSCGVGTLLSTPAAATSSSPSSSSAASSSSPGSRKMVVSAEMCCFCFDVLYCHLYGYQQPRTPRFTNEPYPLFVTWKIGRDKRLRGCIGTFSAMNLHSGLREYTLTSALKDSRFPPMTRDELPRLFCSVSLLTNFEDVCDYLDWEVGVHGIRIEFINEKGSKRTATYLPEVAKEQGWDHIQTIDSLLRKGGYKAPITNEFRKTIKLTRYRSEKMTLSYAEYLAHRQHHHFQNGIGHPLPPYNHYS
Sequence of UniProt P08133 (P08133 whole entry): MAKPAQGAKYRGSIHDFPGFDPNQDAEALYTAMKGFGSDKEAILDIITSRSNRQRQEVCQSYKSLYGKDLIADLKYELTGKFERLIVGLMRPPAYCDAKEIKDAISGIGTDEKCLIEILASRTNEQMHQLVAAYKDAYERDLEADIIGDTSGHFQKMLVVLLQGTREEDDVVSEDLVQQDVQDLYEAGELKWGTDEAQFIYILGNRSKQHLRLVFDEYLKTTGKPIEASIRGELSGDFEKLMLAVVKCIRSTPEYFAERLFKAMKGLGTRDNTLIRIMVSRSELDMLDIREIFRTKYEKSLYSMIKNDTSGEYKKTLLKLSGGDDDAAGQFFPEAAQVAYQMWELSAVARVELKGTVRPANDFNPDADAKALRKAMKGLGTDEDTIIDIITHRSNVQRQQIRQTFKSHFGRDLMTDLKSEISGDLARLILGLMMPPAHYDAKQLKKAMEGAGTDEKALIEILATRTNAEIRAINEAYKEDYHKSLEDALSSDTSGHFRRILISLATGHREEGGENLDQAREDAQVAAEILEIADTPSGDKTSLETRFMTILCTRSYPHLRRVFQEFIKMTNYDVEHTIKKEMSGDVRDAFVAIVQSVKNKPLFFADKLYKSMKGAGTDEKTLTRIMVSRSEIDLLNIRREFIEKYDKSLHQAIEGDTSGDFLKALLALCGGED
Sequence of UniProt Q96CW1 (Q96CW1 whole entry): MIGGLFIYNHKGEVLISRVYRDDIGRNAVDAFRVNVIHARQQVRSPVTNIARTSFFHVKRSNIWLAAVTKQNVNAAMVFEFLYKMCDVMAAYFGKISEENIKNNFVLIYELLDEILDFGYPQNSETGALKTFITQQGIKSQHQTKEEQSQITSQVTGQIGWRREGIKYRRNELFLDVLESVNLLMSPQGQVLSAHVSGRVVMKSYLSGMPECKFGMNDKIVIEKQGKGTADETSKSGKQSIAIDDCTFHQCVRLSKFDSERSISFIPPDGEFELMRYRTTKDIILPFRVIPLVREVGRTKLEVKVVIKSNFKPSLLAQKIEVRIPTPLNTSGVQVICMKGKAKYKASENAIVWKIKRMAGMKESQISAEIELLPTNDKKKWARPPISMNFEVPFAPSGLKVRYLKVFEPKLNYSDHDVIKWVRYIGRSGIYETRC

| Target | thermal stability z-score [1, 3] | thermal stability z-score ([1]; arsenate co-treatment: none) | thermal stability z-score [2] |
| --- | --- | --- | --- |
| AMD1 (UniProt P17707) | 0.96 | 0.512 | -0.105 |
| AMDHD2 (UniProt Q9Y303) | 0.0258 | 0.186 | 1.3 |
| AMFR (UniProt Q9UKV5) | -0.269 | -0.845 | 0.444 |
| AMMECR1 (UniProt Q9Y4X0) | -0.157 | -0.0642 | -0.217 |
| AMPD2 (UniProt Q01433) | 0.297 | -0.25 | 0.172 |
| AMZ2 (UniProt Q86W34) | 0.33 | -0.032 | 0.211 |
| ANAPC1 (UniProt Q9H1A4) | 0.11 | 0.139 | 0.0453 |
| ANAPC2 (UniProt Q9UJX6) | -0.312 | -0.0871 | 0.093 |
| ANAPC4 (UniProt Q9UJX5) | -0.529 | -0.278 | -1.3 |
| ANAPC5 (UniProt Q9UJX4) | 0.0562 | -0.0827 | -0.0639 |
| ANAPC7 (UniProt Q9UJX3) | 0.306 | 0.186 | 0.251 |
| ANAPC10 (UniProt Q9UM13) | 0.0276 | -0.149 | -0.183 |
| ANGEL2 (UniProt Q5VTE6) | -0.111 | -0.19 | -0.0197 |
| ANKFY1 (UniProt Q9P2R3) | 0.069 | 0.106 | 0.477 |
| ANKHD1 (UniProt Q8IWZ3) | -0.133 | -0.523 | 0.37 |
| ANKLE2 (UniProt Q86XL3) | -1.08 | -0.166 | 0.76 |
| ANKMY2 (UniProt Q8IV38) | 0.0659 | 0.00957 | 0.0818 |
| ANKRD13A (UniProt Q8IZ07) | 0.0649 | -0.0472 | -0.0666 |
| ANKRD17 (UniProt O75179) | -0.568 | -0.123 | -0.27 |
| ANKRD27 (UniProt Q96NW4) | -0.025 | -0.0854 | -0.276 |
| ANKRD28 (UniProt O15084) | -0.25 | -0.0938 | -0.209 |
| ANKRD40 (UniProt Q6AI12) | 0.246 | 0.087 | 0.146 |
| ANKRD44 (UniProt Q8N8A2) | -0.00602 | -0.323 | -0.0202 |
| ANKRD50 (UniProt Q9ULJ7) | -0.124 | 0.078 | 0.0328 |

| Target | thermal stability z-score [1, 3] | thermal stability z-score ([1]; arsenate co-treatment: none) | thermal stability z-score [2] |
| --- | --- | --- | --- |
| ANKRD52 (UniProt Q8NB46) | -0.69 | -0.0975 | -0.372 |
| ANKRD54 (UniProt Q6NXT1) | -0.042 | -0.267 | -0.49 |
| ANKS1A (UniProt Q92625) | -0.553 | 0.198 | 0.294 |
| ANKZF1 (UniProt Q9H8Y5) | 0.373 | 0.0149 | 0.0789 |
| ANLN (UniProt Q9NQW6) | 0.066 | 0.0787 | -1.45 |
| ANO6 (UniProt Q4KMQ2) | -0.102 | -0.0242 | -0.286 |
| ANO10 (UniProt Q9NW15) | -0.0281 | -0.122 | -0.262 |
| ANP32A (UniProt P39687) | 0.324 | 0.51 | 0.197 |
| ANP32B (UniProt Q92688) | -0.711 | -0.129 | -0.513 |
| ANP32E (UniProt Q9BTT0) | -1.1 | 0.32 | -4 |
| ANTXR1 (UniProt Q9H6X2) | 0.0337 | -0.146 | 0.283 |
| ANXA1 (UniProt P04083) | 0.957 | 0.83 | -0.37 |
| ANXA2 (UniProt P07355) | 1.59 | 1.79 | 0.066 |
| ANXA3 (UniProt P12429) | 0.902 | 0.504 | 0.227 |
| ANXA4 (UniProt P09525) | 1.42 | 1.61 | 0.225 |
| ANXA5 (UniProt P08758) | 1.34 | 1.22 | 0.601 |
| ANXA6 (UniProt P08133) | 3.2 | 3.6 | 2.15 |
| ANXA7 (UniProt P20073) | 1.98 | 1.08 | 0.966 |
| ANXA8L1 (UniProt Q5VT79) | -0.11 | -0.0845 | 0.00565 |
| ANXA11 (UniProt P50995) | 3.8 | 3.23 | 1.77 |
| AP1B1 (UniProt Q10567) | 0.216 | 0.0123 | 0.425 |
| AP1G1 (UniProt O43747) | -0.704 | -0.404 | 0.813 |
| AP1G2 (UniProt O75843) | 0.17 | 0.114 | 0.167 |
| AP1M1 (UniProt Q9BXS5) | 0.126 | -0.43 | 0.791 |

| Target | thermal stability z-score [1, 3] | thermal stability z-score ([1]; arsenate co-treatment: none) | thermal stability z-score [2] |
| --- | --- | --- | --- |
| AP1S1 (UniProt P61966) | -0.264 | -0.339 | 0.802 |
| AP2A1 (UniProt O95782) | -0.0653 | 0.3 | 1.19 |
| AP2A2 (UniProt O94973) | -0.0644 | -0.149 | -0.337 |
| AP2B1 (UniProt P63010) | -0.153 | -0.596 | -0.216 |
| AP2M1 (UniProt Q96CW1) | 0.48 | 0.0269 | 0.0231 |
| AP2S1 (UniProt P53680) | -0.111 | -0.0691 | 0.767 |
| AP3B1 (UniProt O00203) | -0.0343 | 0.0807 | 0.404 |
| AP3D1 (UniProt O14617) | -0.494 | -0.336 | 0.577 |
| AP3M1 (UniProt Q9Y2T2) | 0.0419 | 0.0205 | 0.418 |
| AP3S1 (UniProt Q92572) | 0.0661 | 0.0785 | 0.131 |
| AP4B1 (UniProt Q9Y6B7) | 0.0905 | -0.147 | -0.137 |
| AP4E1 (UniProt Q9UPM8) | -0.117 | -0.092 | -0.068 |
| AP4M1 (UniProt O00189) | 0.0799 | -0.0232 | -0.173 |
| AP5Z1 (UniProt O43299) | 0.0372 | 0.822 | 0.502 |
| APAF1 (UniProt O14727) | -0.167 | -0.0627 | -0.00853 |
| APBB2 (UniProt Q92870) | 0.078 | -0.11 | 0.0987 |
| APC (UniProt P25054) | 0.728 | 0.273 | 0.816 |
| APEH (UniProt P13798) | 0.391 | 0.223 | 0.225 |
| APEX1 (UniProt P27695) | -0.558 | 0.406 | -0.345 |
| APEX2 (UniProt Q9UBZ4) | 0.0959 | 0.209 | -0.747 |
| APH1A (UniProt Q96BI3) | 0.28 | -0.0861 | -0.696 |
| API5 (UniProt Q9BZZ5) | 0.11 | 0.124 | 0.0226 |
| APIP (UniProt Q96GX9) | 0.597 | 0.408 | -0.0221 |
